The values that follow come from ChEMBL document CHEMBL2046268 (Eur J Med Chem, 2012).

SMILES strings stand for the structures. pIC50: −log10 of the molar value. Calls of active or inactive are those of the source. The rule behind the calls is not given here. *1 amine or outer side, *2 acyl side, *3 side chain or, on linkers, in order; H or OH if unused. Where a SMILES comes first, the peptide text is derived from it. Bridges are numbered along the chain shown (N, C = ends). Roman numbers before positions name the chains, in order. [ ]: non-standard residue; d: D form. Actinocin(1to9) = Cc1c2oc3c(C)ccc(C(=O)[*:2])c3nc-2c(C(=O)[*:1])c(N)c1=O; NMeV = CN[C@H](C(=O)O)C(C)C; Sar = CNCC(=O)O

The subject of assay [1] is MCF7. As to the kind of experiment: Cytotoxicity against human MCF7 cells assessed as cell viability after 48 hrs by MTT assay. The class given is functional, cell-based. As to conditions: MCF7, 48 h.
Assay [2] concerns HeLa. As to the kind of experiment: Induction of apoptosis in human HeLa cells assessed as phosphatidylserine externalization after 0.5 to 4 hrs using annexin/PI staining by fluorescence microscopy. The format is functional, cell-based.
Assay [3] deals with Vero. As to the kind of experiment: Selectivity index, ratio of IC50 for african green monkey Vero cells to IC50 for human MCF7 cells after 48 hrs.
Assay [4] deals with HeLa. As to the kind of experiment: Induction of apoptosis in human HeLa cells assessed as necrotic cells at 1 uM using annexin/PI staining by fluorescence microscopy. The class given is functional, cell-based. As to conditions: TDE = time-dependent effect.
For assay [5], the system named is HeLa. As to the kind of experiment: Induction of apoptosis in human HeLa cells assessed as phosphatidylserine externalization at 1 uM using annexin/PI staining by fluorescence microscopy. The format is functional, cell-based. As to conditions: TDE = time-dependent effect.
Assay [6] has as its system HeLa. As to the kind of experiment: Induction of apoptosis in human HeLa cells assessed as DNA fragmentation by agarose gel electrophoresis. The class given is functional, cell-based.
Assay [7] relates to HeLa. As to the kind of experiment: Cytotoxicity against human HeLa cells assessed as cell viability after 48 hrs by MTT assay. The class given is functional, cell-based.
The test system of assay [8] is HeLa. As to the kind of experiment: Induction of apoptosis in human HeLa cells assessed as necrotic cells after 0.5 to 4 hrs using annexin/PI staining by fluorescence microscopy. The format is functional, cell-based.
Assay [9] relates to A549. As to the kind of experiment: Cytotoxicity against human A549 cells assessed as cell viability after 48 hrs by MTT assay. As to conditions: A549, 48 h. The format is functional, cell-based.
Assay [10] has as its system HeLa. As to the kind of experiment: Cytotoxicity against human HeLa cells assessed as cell viability after 72 hrs by MTT assay. The class given is functional, cell-based.
For assay [11], the target named is T1, Caspase-3 (Homo sapiens) (UniProt P42574).
T1 sequence (whole entry): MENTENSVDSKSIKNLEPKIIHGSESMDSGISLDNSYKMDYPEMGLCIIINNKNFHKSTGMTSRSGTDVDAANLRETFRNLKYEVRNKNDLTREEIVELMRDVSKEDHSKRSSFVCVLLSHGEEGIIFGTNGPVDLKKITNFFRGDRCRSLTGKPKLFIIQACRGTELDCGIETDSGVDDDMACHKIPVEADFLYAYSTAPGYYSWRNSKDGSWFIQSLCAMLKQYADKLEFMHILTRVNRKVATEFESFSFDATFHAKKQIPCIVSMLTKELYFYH
As to the kind of experiment: Induction of caspase 3 activation in human HeLa cells using Ac-DEVD-pNA at 8 uM after 4 hrs by Bradford assay. The class given is cell-based.

For assay [12], the system named is HeLa. As to the kind of experiment: Induction of apoptosis in human HeLa cells assessed as necrotic cells at 2 to 16 uM using annexin/PI staining by fluorescence microscopy. The settings on record: TDE = time-dependent effect. The format is functional, cell-based.
The test system of assay [13] is HeLa. As to the kind of experiment: Induction of apoptosis in human HeLa cells assessed as late apoptotic cells at 2 to 4 uM up to 4 hrs using annexin/PI staining by fluorescence microscopy. The format is functional, cell-based.
The test system of assay [14] is MCF7. As to the kind of experiment: Cytotoxicity against human MCF7 cells assessed as cell viability after 72 hrs by MTT assay. The class given is functional, cell-based. The settings on record: MCF7, 72 h.
Assay [15] relates to Vero. As to the kind of experiment: Cytotoxicity against african green monkey Vero cells assessed as cell viability after 48 hrs by MTT assay. The format is cell-based. As to conditions: Chlorocebus sabaeus.
Assay [16] relates to Vero. As to the kind of experiment: Cytotoxicity against african green monkey Vero cells assessed as cell viability after 72 hrs by MTT assay. The class given is cell-based. The settings on record: Chlorocebus sabaeus.
The subject of assay [17] is HeLa. As to the kind of experiment: Induction of apoptosis in human HeLa cells assessed as formation of apoptotic bodies at 8 uM after 12 hrs using Hoechst 33342 staining by fluorescence microscopic analysis. The class given is functional, cell-based.
The subject of assay [18] is HeLa. As to the kind of experiment: Induction of apoptosis in human HeLa cells assessed as chromatin condensation at 8 uM after 12 hrs using Hoechst 33342 staining by fluorescence microscopic analysis. The class given is functional, cell-based.
Assay [19] has as its system HeLa. As to the kind of experiment: Induction of apoptosis in human HeLa cells assessed as phosphatidylserine externalization at 2 to 16 uM using annexin/PI staining by fluorescence microscopy. The class given is functional, cell-based. As to conditions: TDE = time-dependent effect.
Assay [20] relates to HeLa. As to the kind of experiment: Increase in apoptosis in human HeLa cells at 8 uM after 12 hrs using Hoechst 33342 staining by fluorescence microscopic analysis relative to control. The class given is functional.
Assay [21] has as its system HeLa. As to the kind of experiment: Induction of apoptosis in human HeLa cells assessed as DNA fragmentation at 16 to 32 uM after 24 hrs by agarose gel electrophoresis. The class given is functional, cell-based.
The test system of assay [22] is HeLa. As to the kind of experiment: Induction of apoptosis in human HeLa cells assessed as DNA fragmentation at 16 uM after 48 hrs by agarose gel electrophoresis. The class given is functional, cell-based.
In assay [23] the test system is A549. As to the kind of experiment: Cytotoxicity against human A549 cells assessed as cell viability after 72 hrs by MTT assay. The format is functional, cell-based. As to conditions: A549, 72 h.
Assay [24] concerns HeLa. As to the kind of experiment: Induction of apoptosis in human HeLa cells assessed as DNA fragmentation at 4 to 32 uM after 12 hrs by agarose gel electrophoresis. The class given is functional, cell-based.
Assay [25] has as its target T1, Caspase-3 (Homo sapiens). As to the kind of experiment: Induction of caspase 3 activation in human HeLa cells using Ac-DEVD-pNA at 4 uM after 4 hrs by Bradford assay. The class given is cell-based.
In assay [26] the target is T1, Caspase-3 (Homo sapiens). As to the kind of experiment: Induction of caspase 3 activation in human HeLa cells using Ac-DEVD-pNA after 4 hrs by Bradford assay. The format is cell-based.
Assay [27] has as its system HeLa. As to the kind of experiment: Induction of apoptosis in human HeLa cells assessed as early apoptotic cells at 2 to 4 uM up to 4 hrs using annexin/PI staining by fluorescence microscopy. The class given is functional, cell-based.

For `Cc1c2oc3c(C)ccc(C(=O)N[C@@H]4C(=O)N[C@H](C(C)C)C(=O)N5CCC[C@H]5C(=O)N(C)CC(=O)N(C)[C@@H](C(C)C)C(=O)O[C@@H]4C)c3nc-2c(C(=O)N[C@@H]2C(=O)N[C@H](C(C)C)C(=O)N3CCC[C@H]3C(=O)N(C)CC(=O)N(C)[C@@H](C(C)C)C(=O)O[C@@H]2C)c(N)c1=O` [DACTINOMYCIN] (I: T[dV]P[Sar][NMeV] / II: T[dV]P[Sar][NMeV]; ester I:1-I:C, II:1-II:C; linker I:N-II:N via Actinocin(1to9)), the pIC50 with MCF7 [1] is 7.62; in the assay with HeLa [7] it was 8.96; in the assay with A549 [9], 8.14. In addition, the Activity entry in the assay with HeLa [2] was “Dose-dependent effect”; with HeLa [4] it was “tde”; with HeLa [5], “tde”; in the assay with HeLa [8], “Dose-dependent effect”. In addition, in the assay with Vero [3], the “Ratio IC50” value was 3. Moreover, the outcome in the assay on HeLa [6] was Active.

As to `CC1=C(C)C(=O)O[C@@H]([C@@H](C)[C@H]2CC=C3[C@@H]4C[C@H]5O[C@]56[C@@H](O)C=CC(=O)[C@]6(C)[C@H]4CC[C@@]32C)C1`, the negative logarithm of the IC50 (pIC50) with HeLa [10] is 5.54; with MCF7 [1] it was 5.89; with MCF7 [14], 6.52; in the assay on Vero [15] it was 5.21; in the assay with Vero [16], 5.92; with HeLa [7], 5.46. Moreover, the pIC50 in the assay with A549 [23] is 5.68; in the assay on A549 [9], 5.59. Besides, the outcome at Caspase-3 (Homo sapiens) [11], in the assay on HeLa [21], in the assay with HeLa [22], in the assay with HeLa [24] and at Caspase-3 (Homo sapiens) [25] was inactive. Further, the Activity entry in the assay on HeLa [12] was “tde”; in the assay with HeLa [2], “Dose-dependent effect”; in the assay on HeLa [19], “tde”; in the assay with HeLa [20], 27%; on Caspase-3 (Homo sapiens) [26], “Dose-dependent effect”; in the assay on HeLa [8], “Dose-dependent effect”. In addition, the result with HeLa [13], with HeLa [17], with HeLa [18] and in the assay on HeLa [27] was Active. The “Ratio IC50” value with Vero [3] came to 1.7.
